Results reported in ChEMBL document CHEMBL5376025, “Colorectal anticancer activity of a novel class of triazolic triarylmethane derivatives” (RSC Med Chem, 2024).
Calls of active or inactive are those of the source. The rule behind the calls is not given here.

How the values were obtained:
HT-29 [1] = assay: Antiproliferative activity against human HT-29 cells assessed as inhibition of cell growth at 50 uM measured after 48 hrs by MTT assay; type: functional, cell-based; conditions: HT-29, 48 h
HCT-116 [2] = assay: Antiproliferative activity against human HCT-116 cells assessed as inhibition of cell growth measured after 48 hrs by MTT assay; type: functional, cell-based; conditions: HCT-116, 48 h
HT-29 [3] = assay: Antiproliferative activity against human HT-29 cells assessed as inhibition of cell growth measured after 48 hrs by MTT assay; type: functional, cell-based; conditions: HT-29, 48 h
HCT-116 [4] = assay: Antiproliferative activity against human HCT-116 cells assessed as inhibition of cell growth at 50 uM measured after 48 hrs by MTT assay; type: functional, cell-based; conditions: HCT-116, 48 h
[5] = Cytotoxicity against mouse L929 cells assessed as cell survival at 0.78 to 100 uM measured after 24 hrs by MTT colorimetric assay relative to control; type: toxicity, cell-based; conditions: dose 0.78-100 µM, read-out: Activity
L929 = assay: Cytotoxicity against mouse L929 cells assessed as reduction in cell viability at 0.78 to 100 uM measured after 24 hrs by MTT colorimetric assay; type: toxicity, cell-based; conditions: l929, 24 h, dose 0.78-100 µM
HCT-116 [6] = assay: Induction of apoptosis in human HCT-116 cells assessed as activation of p38 measured after 6 to 12 hrs by Western blotting analysis; type: functional, cell-based; conditions: time 6-12 hrs
HCT-116 [7] = assay: Induction of apoptosis in human HCT-116 cells assessed as increase in cleaved PARP expression measured after 24 to 48 hrs by Western blot analysis; type: functional, cell-based; conditions: time 24-48 hrs
HT-29 [8] = assay: Induction of apoptosis in human HT-29 cells assessed as inhibition of capsase-3 expression measured after 24 to 48 hrs by Western blot analysis; type: functional, cell-based; conditions: time 24-48 hrs
HT-29 [9] = assay: Induction of apoptosis in human HT-29 cells assessed as increase in cleaved caspase-3 expression measured after 24 to 48 hrs by Western blot analysis; type: functional, cell-based; conditions: time 24-48 hrs
HCT-116 [10] = assay: Induction of apoptosis in human HCT-116 cells assessed as downregulation of Akt phosphorylation level measured after 6 hrs by Western blotting analysis; type: functional, cell-based
HCT-116 [11] = assay: Induction of apoptosis in human HCT-116 cells assessed as inhibition of ERK phosphorylation level measured after 12 hrs by Western blotting analysis; type: functional, cell-based
HCT-116 [12] = assay: Induction of apoptosis in human HCT-116 cells assessed as fold increase in DNA fragmentation measured after 48 hrs by ELISA method; type: functional
HCT-116 [13] = assay: Induction of apoptosis in human HCT-116 cells assessed as effect on ERK expression level measured after 6 to 12 hrs by Western blotting analysis; type: functional, cell-based; conditions: time 6-12 hrs
HT-29 [14] = assay: Induction of apoptosis in human HT-29 cells assessed as fold increase in DNA fragmentation measured after 48 hrs by ELISA method; type: functional
HCT-116 [15] = assay: Induction of apoptosis in human HCT-116 cells assessed as inhibition of PARP expression by Western blot analysis; type: functional, cell-based; conditions: time 24-48 hrs, TDE = time-dependent effect
HT-29 [16] = assay: Induction of apoptosis in human HT-29 cells assessed as increase in cleaved PARP expression measured after 48 hrs by Western blot analysis; type: functional, cell-based
HCT-116 [17] = assay: Induction of apoptosis in human HCT-116 cells assessed as increase in cleaved caspase-3 expression measured after 24 hrs by Western blot analysis; type: functional, cell-based
HCT-116 [18] = assay: Induction of apoptosis in human HCT-116 cells assessed as increase in cleaved caspase-3 expression measured after 48 hrs by Western blot analysis; type: functional, cell-based
HT-29 [19] = assay: Induction of apoptosis in human HT-29 cells assessed as inhibition of PARP expression by Western blot analysis; type: functional, cell-based; conditions: time 24-48 hrs, TDE = time-dependent effect
HCT-116 [20] = assay: Induction of apoptosis in human HCT-116 cells assessed as inhibition of capsase-3 expression measured after 24 to 48 hrs by Western blot analysis; type: functional, cell-based; conditions: time 24-48 hrs
HCT-116 [21] = assay: Induction of apoptosis in human HCT-116 cells assessed as upregulation of Akt expression level measured after 6 to 12 hrs by Western blotting analysis; type: functional, cell-based; conditions: time 6-12 hrs
HCT-116 [22] = assay: Induction of apoptosis in human HCT-116 cells assessed as decrease in ERK phosphorylation level measured after 6 hrs by Western blotting analysis; type: functional, cell-based

**Q.** Which IC50 (HT-29 [1]) does the source give for `[O-][n+]1ccccc1C(c1ccc(OCc2cn(CCN3CCCCC3)nn2)cc1)c1ccc(OCc2cn(CCN3CCCCC3)nn2)cc1` here?
**A.** > 50 µM

**Q.** What about the IC50 (HCT-116 [2]) of the same compound?
**A.** > 50 µM

**Q.** What about the IC50 (HT-29 [3]) of the same compound?
**A.** > 50 µM

**Q.** And the IC50 (HCT-116 [4])?
**A.** > 50 µM

**Q.** For `O[C@@H]1[C@@H](O)[C@@H](O)O[C@H](Cn2cc(COc3ccc(C(c4ccc(OCc5cn(C[C@H]6O[C@H](O)[C@H](O)[C@@H](O)[C@H]6O)nn5)cc4)c4ccccn4)cc3)nn2)[C@@H]1O` (some centres undefined), which IC50 (HCT-116 [2]) is on record?
**A.** > 50 µM

**Q.** What about the IC50 (HT-29 [3]) of the same compound?
**A.** > 50 µM

**Q.** For `C#CCOc1ccc(C(c2ccc(OCc3cnnn3CCCN)cc2)c2ccccn2)cc1` (centres undefined), which viability at 24 h, up to 100 µM [5] is on record?
**A.** 100%

**Q.** And the IC50 (HCT-116 [2])?
**A.** > 50 µM

**Q.** What about the Activity (L929) of the same compound?
**A.** Non-Toxic

**Q.** What about the IC50 (HT-29 [3]) of the same compound?
**A.** > 50 µM

**Q.** Which viability at 24 h, up to 100 µM [5] does the source give for `C#CCOc1ccc(C(c2ccc(OCc3cn(CCN4CCCCC4)nn3)cc2)c2ccccn2)cc1` (centres undefined) here?
**A.** 100%

**Q.** What about the IC50 (HCT-116 [2]) of the same compound?
**A.** 45 µM

**Q.** What about the Activity (L929) of the same compound?
**A.** Non-Toxic

**Q.** And the IC50 (HT-29 [3])?
**A.** 24.7 µM

**Q.** For `c1ccc(C(c2ccc(OCc3cn(CCN4CCCCC4)nn3)cc2)c2ccc(OCc3cn(CCN4CCCCC4)nn3)cc2)nc1`, which Activity (HCT-116 [6]) is on record?
**A.** inactive

**Q.** What about the Activity (HCT-116 [7]) of the same compound?
**A.** Active

**Q.** And the Activity (HT-29 [8])?
**A.** Active

**Q.** And the Activity (HT-29 [9])?
**A.** Active

**Q.** What about the Activity (HCT-116 [10]) of the same compound?
**A.** Active

**Q.** What about the viability at 24 h, up to 100 µM [5] of the same compound?
**A.** 100%

**Q.** And the Activity (HCT-116 [11])?
**A.** Active

**Q.** And the “fold change (FC)” value (HCT-116 [12])?
**A.** 6.73

**Q.** What about the Activity (HCT-116 [13]) of the same compound?
**A.** inactive

**Q.** What about the “fold change (FC)” value (HT-29 [14]) of the same compound?
**A.** 5.37

**Q.** What about the Activity (HCT-116 [15]) of the same compound?
**A.** Tde

**Q.** What about the Activity (HT-29 [16]) of the same compound?
**A.** Active

**Q.** What about the Activity (HCT-116 [17]) of the same compound?
**A.** inactive

**Q.** And the Activity (HCT-116 [18])?
**A.** Active

**Q.** And the IC50 (HCT-116 [2])?
**A.** 14.4 µM

**Q.** And the Activity (HT-29 [19])?
**A.** Tde

**Q.** And the Activity (HCT-116 [20])?
**A.** Active

**Q.** And the Activity (L929)?
**A.** Non-Toxic

**Q.** What about the Activity (HCT-116 [21]) of the same compound?
**A.** Active

**Q.** What about the IC50 (HT-29 [3]) of the same compound?
**A.** 11 µM

**Q.** And the Activity (HCT-116 [22])?
**A.** Active

**Q.** For `c1ccc(Cn2cc(COc3ccc(C(c4ccc(OCc5cn(Cc6ccccc6)nn5)cc4)c4ccccn4)cc3)nn2)cc1`, which viability at 24 h, up to 100 µM [5] is on record?
**A.** 100%

**Q.** What about the IC50 (HCT-116 [2]) of the same compound?
**A.** > 50 µM

**Q.** And the Activity (L929)?
**A.** Non-Toxic

**Q.** And the IC50 (HT-29 [3])?
**A.** > 50 µM

**Q.** Which results are given for `c1ccc(C(c2ccc(OCc3cn(C[C@H]4CCCN4)nn3)cc2)c2ccc(OCc3cn(C[C@H]4CCCN4)nn3)cc2)nc1`?
**A.** viability at 24 h, up to 100 µM [5]: 100%; IC50 (HCT-116 [2]): > 50 µM; Activity (L929): Non-Toxic; IC50 (HT-29 [3]): > 50 µM

**Q.** With `C#CCOc1ccc(C(c2ccc(OCc3cn(Cc4ccccc4)nn3)cc2)c2ccccn2)cc1` (centres undefined) as the compound, how does the viability at 24 h, up to 100 µM [5] read?
**A.** 100%

**Q.** And the IC50 (HCT-116 [2])?
**A.** > 50 µM

**Q.** What about the Activity (L929) of the same compound?
**A.** Non-Toxic

**Q.** And the IC50 (HT-29 [3])?
**A.** > 50 µM

**Q.** Which IC50 (HCT-116 [2]) does the source give for `OC[C@@H](O)[C@H]1O[C@H](O)[C@H](O)[C@H]1n1cc(COc2ccc(C(c3ccc(OCc4cn([C@@H]5[C@@H](O)[C@@H](O)O[C@@H]5[C@H](O)CO)nn4)cc3)c3ccccn3)cc2)nn1` (some centres undefined) here?
**A.** > 50 µM

**Q.** And the IC50 (HT-29 [3])?
**A.** > 50 µM
